Source: paper PMC8076300, “A novel cystathionine γ-lyase inhibitor, I194496, inhibits the growth and metastasis of human TNBC via downregulating multiple signaling pathways” (Scientific Reports, 2021)

Target: T1, cystathionine γ-lyase (CSE) (Homo sapiens, UniProt P32929)
T1 construct: gene CTH
Assay: methylene blue H2S production assay with purified recombinant CSE, L-cysteine substrate
Format: biochemical

T1 sequence (P32929 whole entry): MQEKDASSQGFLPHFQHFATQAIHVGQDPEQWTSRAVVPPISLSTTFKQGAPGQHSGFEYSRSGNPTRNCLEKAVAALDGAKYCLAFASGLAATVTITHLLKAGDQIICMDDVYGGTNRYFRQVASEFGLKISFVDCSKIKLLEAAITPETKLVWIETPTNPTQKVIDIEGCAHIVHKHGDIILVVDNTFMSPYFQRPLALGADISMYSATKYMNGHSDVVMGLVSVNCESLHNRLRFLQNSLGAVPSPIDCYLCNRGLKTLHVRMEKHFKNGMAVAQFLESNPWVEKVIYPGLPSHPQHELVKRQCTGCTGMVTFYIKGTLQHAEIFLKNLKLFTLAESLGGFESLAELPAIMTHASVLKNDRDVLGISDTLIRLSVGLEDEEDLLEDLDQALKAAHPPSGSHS

- IC50: 790 µM
SMILES: COc1ccc(-c2cc(C(F)F)n3ncc(C(=O)Nc4ccc(S(=O)(=O)Nc5ccccc5OC)cc4)c3n2)cc1 [I194496, 7-(difluoromethyl)-N-{4-[(2-methoxyanilino)sulfonyl]phenyl}-5-(4-methoxyphenyl)pyrazolo[1,5-a]pyrimidine-3-carboxamide]
